Reference: ChEMBL document CHEMBL1201862, “PubChem BioAssay data set” (2004)
Calls of active or inactive are those of the source.

Assays:
HEK293 = test: Fluorescence-based counterscreen for potentiators or agonists of NPY-Y2: cell-based high-throughput dose response assay to identify inhibitors of cyclic nucleotide gated ion channel (CNGC) activity. In this assay, the parental HEK293 cell line transfected with a cyclic-nucleotide gated ion channel (CNGC)-based cAMP sensor is used to measure inhibition of isoproterenol-induced CNGC activity by test compound.; type: functional; conditions: Homo sapiens;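 also: stimulus is 1 µM isoproterenol at EC100 plus PDE inhibitor Ro 20-1724 at 25 µM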
[1] = target: T1, Neuropeptide Y receptor type 2 (Homo sapiens, UniProt P49146); test: Fluorescence-based cell-based high-throughput dose response assay for agonists of NPY-Y2. [Related pubchem assays: 1703 (Screening assay (CNGC inhibitors).), 1359 (Screening assay (NPY-Y2 potentiators or agonists).), 1304 (Screening assay (NPY-Y1 potentiators or agonists).), 1710 (Screening assay (NPY-Y2 agonists).), 1791 (Summary AID.)]; type: functional
T1 sequence (P49146 whole entry): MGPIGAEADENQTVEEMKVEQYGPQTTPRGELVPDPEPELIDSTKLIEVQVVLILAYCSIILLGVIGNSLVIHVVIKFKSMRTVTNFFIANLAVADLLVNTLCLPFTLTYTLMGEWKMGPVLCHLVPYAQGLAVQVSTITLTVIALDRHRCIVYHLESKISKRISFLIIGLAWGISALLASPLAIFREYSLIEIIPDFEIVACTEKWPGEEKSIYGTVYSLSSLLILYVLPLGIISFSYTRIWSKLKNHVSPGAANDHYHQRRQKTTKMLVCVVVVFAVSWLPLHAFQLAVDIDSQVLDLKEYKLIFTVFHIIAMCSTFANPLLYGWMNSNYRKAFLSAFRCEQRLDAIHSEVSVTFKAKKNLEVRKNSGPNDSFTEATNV

[2] = target: T2, Neuropeptide Y receptor type 1 (Homo sapiens, UniProt P25929); test: Fluorescence-based counterscreen for agonists of NPY-Y2: cell-based high-throughput dose response assay for agonists of NPY-Y1.; type: functional
T2 sequence (P25929 whole entry): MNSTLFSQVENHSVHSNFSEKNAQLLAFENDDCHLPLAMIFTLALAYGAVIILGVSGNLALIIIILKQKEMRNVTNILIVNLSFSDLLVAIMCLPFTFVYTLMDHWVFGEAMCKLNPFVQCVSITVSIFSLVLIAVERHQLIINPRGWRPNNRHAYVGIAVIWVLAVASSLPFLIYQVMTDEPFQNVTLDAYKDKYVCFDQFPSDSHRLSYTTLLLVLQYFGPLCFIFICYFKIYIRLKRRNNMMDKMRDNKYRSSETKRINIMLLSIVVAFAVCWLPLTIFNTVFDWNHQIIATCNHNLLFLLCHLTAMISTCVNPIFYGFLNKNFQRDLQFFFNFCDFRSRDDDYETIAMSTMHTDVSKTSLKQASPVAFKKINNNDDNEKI

[3] = target: T3, Heat shock 70 kDa protein 1A (Homo sapiens, UniProt P0DMV8); test: small-molecule inhibition of Hsp70 – biochemical, TR-FRET (AID 786)
[4] = target: T4, RNA-binding protein pos-1 (Caenorhabditis elegans, UniProt G5EF15); test: disruptors of C. elegans POS-1 RNA interaction – biochemical, fluorescence polarization, dose response (AID 1964);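 also: purified POS-1 fused to maltose binding protein made in E. coli; potency of compounds blocking POS-1 binding to fluorescent RNA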
T4 sequence (G5EF15 whole entry): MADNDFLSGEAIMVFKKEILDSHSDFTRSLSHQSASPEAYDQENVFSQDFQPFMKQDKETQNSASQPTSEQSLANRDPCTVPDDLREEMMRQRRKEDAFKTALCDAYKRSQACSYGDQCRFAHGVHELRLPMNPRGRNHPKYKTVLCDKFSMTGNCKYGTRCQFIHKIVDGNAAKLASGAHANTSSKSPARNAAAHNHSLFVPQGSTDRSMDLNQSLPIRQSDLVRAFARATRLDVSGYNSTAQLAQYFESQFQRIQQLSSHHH

[5] = target: T3, Heat shock 70 kDa protein 1A; test: small molecules displacing fluorescent ligand from Hsp70 – biochemical, fluorescence polarization, primary screen (AID 583)
[6] = target: T5, Zinc finger protein mex-5 (Caenorhabditis elegans, UniProt Q9XUB2); test: potency of MEX-5 RNA-binding blockers – biochemical, C. elegans, fluorescence polarization, dose response (AID 1960)
T5 sequence (Q9XUB2 whole entry): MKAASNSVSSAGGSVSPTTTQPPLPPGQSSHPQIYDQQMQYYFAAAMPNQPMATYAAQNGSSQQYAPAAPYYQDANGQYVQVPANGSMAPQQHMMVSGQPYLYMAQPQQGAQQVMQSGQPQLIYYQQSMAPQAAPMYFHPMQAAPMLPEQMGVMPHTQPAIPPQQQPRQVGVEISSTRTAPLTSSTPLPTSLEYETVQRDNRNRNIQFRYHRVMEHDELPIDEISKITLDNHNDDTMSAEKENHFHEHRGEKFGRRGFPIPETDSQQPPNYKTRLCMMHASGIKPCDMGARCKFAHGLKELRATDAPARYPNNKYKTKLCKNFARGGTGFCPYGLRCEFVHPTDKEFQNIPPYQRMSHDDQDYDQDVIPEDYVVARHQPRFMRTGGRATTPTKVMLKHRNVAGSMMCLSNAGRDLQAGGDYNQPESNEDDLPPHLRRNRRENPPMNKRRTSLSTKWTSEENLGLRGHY

[7] = target: T6, Endoribonuclease toxin MazF (Escherichia coli K-12, UniProt P0AE70); test: activation of MazEF endoribonuclease cleavage – biochemical, fluorescence, single-stranded RNA substrate, uHTS hits, dose response (AID 588481); type: functional
T6 sequence (P0AE70 whole entry): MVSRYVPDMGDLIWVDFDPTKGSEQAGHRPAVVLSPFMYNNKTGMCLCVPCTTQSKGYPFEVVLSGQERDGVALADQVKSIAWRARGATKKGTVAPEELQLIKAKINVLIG

[8] = target: T6, Endoribonuclease toxin MazF; test: substrate-only fluorescence increase artefacts – biochemical, single-stranded RNase substrate, counter-screen for MazEF activator project, dose response (AID 588502); type: functional
[9] = NIH-3T3 fibroblast cytotoxicity, dose response, cytotoxicity control, cell-based, fluorescence, Alamar Blue, secondary assay (AID 2327); type: functional;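 also: NIH-3T3 mouse fibroblasts cultured with fluconazole at 8 µg/mL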
[10] = luciferase reporter signal suppression in cells – H4 neuroglioma cells, luminescence, dose response (AID 1990); type: functional, cell-based
[11] = Luminescence Cell-Based Dose Response HTS to Identify Inhibitors of 5'UTR Stem-Loop Driven Prion Protein mRNA Translation in H4 Neuroglioblastoma Cells. [Related pubchem assays: 1827 (Project Summary), 1813 (Primary HTS)]; type: functional
[12] = alpha-synuclein stem-loop luciferase translation blockers – H4 neuroglioma cells, luminescence, confirmation (AID 1988); type: functional, cell-based
[13] = fluconazole-exposed Candida albicans growth modulators – fluorescence, retest, confirmation (AID 2467); type: functional, cell-based
[14] = Luminescence-based counterscreen assay for KLF5 inhibitors: dose response cell-based high throughput screening assay to identify cytotoxic compounds using the IEC-6 intestinal epithelial cell line. [Related pubchem assays: 1700 (Primary screen.), 1834 (Confirmation screen.), 1858 (Summary AID.), 1905 (Counterscreen.)]; type: functional
[15] = Trypanosoma cruzi growth suppression in host cells – NIH3T3 host cells, beta-gal luminescence, confirmation (AID 2044); type: functional, cell-based;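 also: intracellular parasites grown in NIH/3T3 mouse fibroblasts as host cells; luminescent beta-galactosidase reporter signal from transgenic T. cruzi replicating inside host cells; inhibitors lower the luminescence signal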
[16] = NIH3T3 cell viability loss – ATP luminescence, mouse fibroblasts, counter-screen, dose response (AID 2010); type: functional, cell-based;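 also: cells exposed to compound for about 90 hours before reading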
Nonstructural protein 1 = Nonstructural protein 1 (Influenza A virus, UniProt Q194T2); type: functional, Influenza A virus (A/California/07/2009(H1N1))
INS1 = test: INS-1E survival protection against cytokine death – cell-based, luminescence, retest, dose response (AID 449756); type: functional; conditions: Rattus norvegicus;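 also: cell death triggered by IL-1 beta plus TNF-alpha plus IFN-gamma mixture; protective hits raise ATP signal compared with cytokine alone wells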
Caspase-6 = target: T7, Caspase-6 (Homo sapiens, UniProt P55212); test: inhibition of CASP6 peptide cleavage – biochemical, VEID-R110 fluorescence, cherry-pick, dose response (AID 720632)
T7 sequence (P55212 whole entry): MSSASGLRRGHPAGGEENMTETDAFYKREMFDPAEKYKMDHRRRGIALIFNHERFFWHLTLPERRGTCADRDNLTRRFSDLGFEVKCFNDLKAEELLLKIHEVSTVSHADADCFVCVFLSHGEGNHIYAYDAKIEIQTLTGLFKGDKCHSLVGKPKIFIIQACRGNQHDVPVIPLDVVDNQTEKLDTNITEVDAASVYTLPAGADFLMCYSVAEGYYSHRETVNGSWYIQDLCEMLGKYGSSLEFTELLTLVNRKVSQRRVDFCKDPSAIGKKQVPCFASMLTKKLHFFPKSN

[17] = target: G2/mitotic-specific cyclin-B1 (Homo sapiens, UniProt P14635); test: Counterscreen assay for inhibitors of Wee1 degradation: dose response cell-based assay to identify inhibitors of cyclin B degradation. [Related pubchem assays: 1410, 1321 ]; type: functional
[18] = target: E3 ubiquitin-protein ligase Mdm2 (Homo sapiens, UniProt Q00987); test: MDM2-luc reporter signal enhancers, multi-concentration potency testing, MDM2 ubiquitin-protein ligase inhibitor program, whole-cell format, luminescence detection, 384-well microplate (AID 1394); type: functional;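 also: MDM2 E3 inhibitors raise luminescence so EC50 is for signal enhancement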
Wee1-like protein kinase = Wee1-like protein kinase (Homo sapiens, UniProt P30291); test: Dose Response Cell-based Assay for Inhibitors of Wee1 Degradation. [Related pubchem assays: 1410, 1321 ]; type: functional
BJ [19] = test: cells; type: functional, cell-based; conditions: Homo sapiens
BJ [20] = test: BJ-TERT-LT-ST fibroblast viability loss – cell-based, RAS-independent, luminescence, dose response (AID 1935); type: functional; conditions: Homo sapiens;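 also: BJ fibroblasts immortalized with TERT plus LT and ST oncogenes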
[21] = DRD fibroblast viability loss – cell-based, non-viral oncogenic, luminescence, dose response (AID 1934); type: functional; conditions: Homo sapiens
[22] = target: T8, Replicative DNA helicase DnaB (Mycobacterium tuberculosis, UniProt P9WMR3); test: DnaB intein splicing inhibitors, dose response, biochemical, cell-free fluorescence (AID 449749); type: functional
T8 sequence (P9WMR3 whole entry): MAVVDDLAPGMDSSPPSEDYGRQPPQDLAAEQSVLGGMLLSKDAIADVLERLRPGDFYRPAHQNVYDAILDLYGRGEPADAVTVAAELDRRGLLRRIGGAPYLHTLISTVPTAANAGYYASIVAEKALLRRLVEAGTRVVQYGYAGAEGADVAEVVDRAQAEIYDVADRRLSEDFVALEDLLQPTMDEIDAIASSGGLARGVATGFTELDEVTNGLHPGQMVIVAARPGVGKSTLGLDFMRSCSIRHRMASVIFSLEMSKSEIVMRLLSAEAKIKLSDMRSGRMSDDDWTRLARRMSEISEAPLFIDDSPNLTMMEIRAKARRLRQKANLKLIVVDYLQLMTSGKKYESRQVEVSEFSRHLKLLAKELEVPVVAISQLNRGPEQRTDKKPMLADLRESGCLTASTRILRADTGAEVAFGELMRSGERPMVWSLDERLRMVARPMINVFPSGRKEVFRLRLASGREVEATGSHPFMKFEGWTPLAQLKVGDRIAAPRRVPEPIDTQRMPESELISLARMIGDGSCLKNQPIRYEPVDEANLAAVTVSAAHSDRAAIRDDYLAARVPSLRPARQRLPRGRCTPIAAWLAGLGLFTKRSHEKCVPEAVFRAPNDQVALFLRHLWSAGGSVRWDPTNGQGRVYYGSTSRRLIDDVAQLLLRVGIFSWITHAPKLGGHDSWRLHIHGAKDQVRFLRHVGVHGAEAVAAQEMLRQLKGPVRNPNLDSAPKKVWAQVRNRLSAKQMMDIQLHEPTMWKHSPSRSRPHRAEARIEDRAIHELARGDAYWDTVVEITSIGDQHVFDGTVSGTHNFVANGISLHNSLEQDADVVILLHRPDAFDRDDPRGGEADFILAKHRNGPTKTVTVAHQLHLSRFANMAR

Protein RecA = target: T9, Protein RecA (Mycobacterium tuberculosis, UniProt P9WHJ3); test: Fluorescence Cell-Free Homogeneous Dose Retest to Identify Inhibitors of RecA-Intein Splicing Activity. [Related pubchem assays (depositor defined):AID2097, AID2223, AID489010, AID492950]; type: functional
T9 sequence (P9WHJ3 whole entry): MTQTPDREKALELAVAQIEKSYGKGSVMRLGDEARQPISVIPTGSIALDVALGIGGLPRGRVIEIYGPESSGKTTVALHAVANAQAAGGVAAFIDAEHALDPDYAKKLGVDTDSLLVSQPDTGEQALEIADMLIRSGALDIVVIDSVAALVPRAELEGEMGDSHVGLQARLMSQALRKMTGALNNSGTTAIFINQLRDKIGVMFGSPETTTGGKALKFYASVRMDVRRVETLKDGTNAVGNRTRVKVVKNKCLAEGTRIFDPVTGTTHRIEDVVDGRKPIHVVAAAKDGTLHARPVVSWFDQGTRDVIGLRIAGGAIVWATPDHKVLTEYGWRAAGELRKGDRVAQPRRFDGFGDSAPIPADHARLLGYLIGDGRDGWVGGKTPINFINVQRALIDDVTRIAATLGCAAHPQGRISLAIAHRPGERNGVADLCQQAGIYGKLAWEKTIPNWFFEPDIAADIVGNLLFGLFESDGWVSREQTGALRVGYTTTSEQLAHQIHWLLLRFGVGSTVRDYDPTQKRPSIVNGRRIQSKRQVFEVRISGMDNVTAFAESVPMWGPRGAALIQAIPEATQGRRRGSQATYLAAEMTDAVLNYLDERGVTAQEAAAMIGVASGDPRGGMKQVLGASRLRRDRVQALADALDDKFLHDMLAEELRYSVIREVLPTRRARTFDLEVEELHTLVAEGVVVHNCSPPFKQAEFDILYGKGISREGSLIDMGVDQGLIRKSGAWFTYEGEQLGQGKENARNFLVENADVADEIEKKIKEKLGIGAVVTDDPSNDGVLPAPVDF

T3 sequence (P0DMV8 whole entry, the tested form may be a part): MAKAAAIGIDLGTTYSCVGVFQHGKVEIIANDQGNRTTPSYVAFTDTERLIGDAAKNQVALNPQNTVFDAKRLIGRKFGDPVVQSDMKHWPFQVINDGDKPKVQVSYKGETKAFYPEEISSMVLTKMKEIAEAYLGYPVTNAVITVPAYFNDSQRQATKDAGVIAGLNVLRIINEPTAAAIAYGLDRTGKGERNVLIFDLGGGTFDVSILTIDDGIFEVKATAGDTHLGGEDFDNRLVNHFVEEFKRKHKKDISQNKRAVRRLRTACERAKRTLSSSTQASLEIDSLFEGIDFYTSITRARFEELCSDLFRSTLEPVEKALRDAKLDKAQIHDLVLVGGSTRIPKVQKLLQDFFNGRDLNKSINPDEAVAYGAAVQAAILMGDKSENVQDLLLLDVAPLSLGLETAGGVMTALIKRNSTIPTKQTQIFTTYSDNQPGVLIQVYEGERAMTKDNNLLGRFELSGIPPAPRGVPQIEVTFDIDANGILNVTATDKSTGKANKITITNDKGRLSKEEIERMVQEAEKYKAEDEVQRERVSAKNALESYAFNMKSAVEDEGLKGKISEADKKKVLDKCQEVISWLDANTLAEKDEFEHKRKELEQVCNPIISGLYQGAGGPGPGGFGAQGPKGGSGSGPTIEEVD
Nonstructural protein 1, sequence (Q194T2 whole entry): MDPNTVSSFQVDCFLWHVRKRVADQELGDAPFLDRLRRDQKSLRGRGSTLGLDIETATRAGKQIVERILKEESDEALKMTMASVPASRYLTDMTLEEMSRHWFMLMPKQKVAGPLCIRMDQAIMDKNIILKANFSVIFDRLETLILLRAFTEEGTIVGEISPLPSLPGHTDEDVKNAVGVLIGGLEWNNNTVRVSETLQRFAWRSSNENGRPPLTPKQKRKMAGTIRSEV
E3 ubiquitin-protein ligase Mdm2, sequence (Q00987 whole entry): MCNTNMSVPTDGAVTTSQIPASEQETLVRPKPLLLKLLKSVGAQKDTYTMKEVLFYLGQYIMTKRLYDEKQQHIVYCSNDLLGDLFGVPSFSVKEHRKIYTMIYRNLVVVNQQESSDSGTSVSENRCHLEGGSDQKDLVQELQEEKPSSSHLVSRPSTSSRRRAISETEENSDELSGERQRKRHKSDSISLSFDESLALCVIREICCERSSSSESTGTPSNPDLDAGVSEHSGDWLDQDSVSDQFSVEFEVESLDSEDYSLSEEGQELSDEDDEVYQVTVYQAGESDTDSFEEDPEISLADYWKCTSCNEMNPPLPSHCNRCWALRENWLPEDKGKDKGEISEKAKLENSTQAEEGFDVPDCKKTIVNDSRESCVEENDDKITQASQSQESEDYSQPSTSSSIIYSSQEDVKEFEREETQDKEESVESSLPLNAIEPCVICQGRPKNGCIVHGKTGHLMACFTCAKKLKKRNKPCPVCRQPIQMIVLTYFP
Wee1-like protein kinase, sequence (P30291 whole entry): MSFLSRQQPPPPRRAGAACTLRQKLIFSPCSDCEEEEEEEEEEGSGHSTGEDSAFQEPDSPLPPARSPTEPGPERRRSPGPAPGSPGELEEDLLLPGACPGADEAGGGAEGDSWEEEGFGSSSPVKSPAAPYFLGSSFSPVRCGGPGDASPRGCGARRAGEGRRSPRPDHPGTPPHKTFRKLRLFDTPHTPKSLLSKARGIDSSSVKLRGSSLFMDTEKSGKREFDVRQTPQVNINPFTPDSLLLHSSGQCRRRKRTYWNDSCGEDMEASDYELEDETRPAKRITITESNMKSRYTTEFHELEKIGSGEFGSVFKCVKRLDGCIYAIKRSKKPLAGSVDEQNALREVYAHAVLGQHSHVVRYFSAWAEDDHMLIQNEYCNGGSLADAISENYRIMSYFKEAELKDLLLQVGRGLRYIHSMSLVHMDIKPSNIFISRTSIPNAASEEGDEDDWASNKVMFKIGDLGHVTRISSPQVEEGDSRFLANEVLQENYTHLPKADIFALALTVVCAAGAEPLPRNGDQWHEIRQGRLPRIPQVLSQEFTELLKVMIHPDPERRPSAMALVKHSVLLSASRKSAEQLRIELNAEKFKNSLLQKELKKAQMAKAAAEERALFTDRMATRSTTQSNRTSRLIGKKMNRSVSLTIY
G2/mitotic-specific cyclin-B1, sequence (P14635 whole entry): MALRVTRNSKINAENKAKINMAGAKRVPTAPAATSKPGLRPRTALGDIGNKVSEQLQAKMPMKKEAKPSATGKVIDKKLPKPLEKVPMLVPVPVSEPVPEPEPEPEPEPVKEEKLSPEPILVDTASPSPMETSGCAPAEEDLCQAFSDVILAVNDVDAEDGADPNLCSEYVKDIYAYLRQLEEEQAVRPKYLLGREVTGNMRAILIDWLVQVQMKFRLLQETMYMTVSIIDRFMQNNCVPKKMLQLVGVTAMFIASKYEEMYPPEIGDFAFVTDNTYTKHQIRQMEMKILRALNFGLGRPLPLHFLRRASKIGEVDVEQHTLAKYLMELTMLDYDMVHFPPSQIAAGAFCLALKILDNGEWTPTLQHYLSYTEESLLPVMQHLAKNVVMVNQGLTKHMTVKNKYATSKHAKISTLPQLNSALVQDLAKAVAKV

O=C(Cc1ccc(Cl)cc1)Nc1cccc(S(=O)(=O)Nc2ccccc2F)c1
10.2 µM (not active): EC50 (HEK293)
15.7 µM (not active): EC50 [1] | EC50 [2]

CCOn1c(=O)c(-c2cc3ccccc3o2)[n+]([O-])c2ccccc21
inconclusive: EC50 [4] 13.4 µM | EC50 [6] 180 µM
inactive: EC50 [7] > 99 µM | EC50 [8] 30.9 µM
> 100 µM (not active): IC50 [3] | IC50 [5]

NS(=O)(=O)c1ccc(N=Nc2ccc(O)c3ncccc23)cc1
active: EC50 [9] 32.2 µM | EC50 [10] 9.04 µM | EC50 [11] 8.29 µM | EC50 [12] 5.67 µM | EC50 [13] 1.95 µM | EC50 [15] 4.07 µM | EC50 [16] 10.4 µM | IC50 (Nonstructural protein 1) 7.62 µM | AC50 (INS1) 3.45 µM | AC50 (Caspase-6) 1.58 µM
10.7 µM (not active): IC50 [14]

CCOC(=O)C1=C(c2ccccc2)O/C(=C(/C#N)C(F)(F)F)S1
active: EC50 [17] > 1.84 µM | EC50 [18] 0.84 µM | EC50 (Wee1-like protein kinase) > 1.84 µM | EC50 [15] 2.37 µM | EC50 [16] 4.88 µM | EC50 (Protein RecA) 0.723 µM
inactive: AC50 [22] > 380 µM
inconclusive: EC50 (BJ [19]) 4.58 µM | EC50 (BJ [20]) 5.47 µM | EC50 [21] 6.24 µM
